# According to ChEMBL document CHEMBL1134927, “A series of C-terminal amino alcohol dipeptide A beta inhibitors” (Bioorg Med Chem Lett, 2002):
# Tested on: HEK293
# Test: Effective dose required to inhibit beta-amyloid formation in a human kidney cell line (HEK 293)
# Format: functional
# Conditions: read-out: ED50 (the source's name)
row,Structure (SMILES),EC50
1,CSCC[C@@H](CO)NC(=O)[C@H](C)NC(=O)[C@@H](O)c1cc(F)cc(F)c1,0.96 µM
2,CCCC[C@@H](CO)NC(=O)[C@H](C)NC(=O)[C@@H](O)c1cc(F)cc(F)c1,0.6 µM
3,C[C@H](NC(=O)Cc1cc(F)cc(F)c1)C(=O)N[C@@H](C)[C@H](O)c1ccccc1,> 10 µM
4,C[C@H](NC(=O)Cc1cc(F)cc(F)c1)C(=O)N(C)[C@@H](C)[C@@H](O)c1ccccc1,> 10 µM
5,C[C@H](NC(=O)[C@@H](O)c1cc(F)cc(F)c1)C(=O)N[C@H](CO)CCCc1ccccc1,0.13 µM
6,C[C@H](NC(=O)Cc1cc(F)cc(F)c1)C(=O)N[C@H]1c2ccccc2C[C@H]1O,0.63 µM
7,C[C@H](NC(=O)Cc1cc(F)cc(F)c1)C(=O)N[C@H](CO)c1ccccc1,0.18 µM
8,C#CC[C@@H](CO)NC(=O)[C@H](C)NC(=O)Cc1cc(F)cc(F)c1,10 µM
9,C[C@H](NC(=O)Cc1cc(F)cc(F)c1)C(=O)NCCO,> 10 µM
10,C[C@H](NC(=O)Cc1cc(F)cc(F)c1)C(=O)N[C@H](CO)CC1CCCCC1,0.8 µM
11,CCCC[C@H](NC(=O)[C@@H](C)NC(=O)Cc1cc(F)cc(F)c1)C(=O)OC,9.4 µM
12,C#CC[C@@H](CO)NC(=O)[C@H](C)NC(=O)[C@@H](O)c1cc(F)cc(F)c1,2.3 µM
13,C[C@H](NC(=O)Cc1cc(F)cc(F)c1)C(=O)N(C)[C@H](C)[C@H](O)c1ccccc1,> 10 µM
14,C[C@H](NC(=O)Cc1cc(F)cc(F)c1)C(=O)N[C@H](C)[C@@H](O)c1ccccc1,> 10 µM
15,C[C@H](NC(=O)Cc1cc(F)cc(F)c1)C(=O)N[C@@H](c1ccccc1)[C@H](O)c1ccccc1,3.5 µM
16,C[C@H](NC(=O)Cc1cc(F)cc(F)c1)C(=O)N[C@@H](CO)c1ccccc1,> 10 µM
17,C[C@H](NC(=O)Cc1cc(F)cc(F)c1)C(=O)N[C@H](CO)CCCc1ccccc1,0.87 µM
18,"C[C@H](NC(=O)Cc1cc(F)cc(F)c1)C(=O)NC1c2ccccc2C[C@@H]1O (single isomer, unassigned)",> 10 µM
19,C[C@H](NC(=O)Cc1cc(F)cc(F)c1)C(=O)N[C@H](CO)Cc1ccccc1,2.7 µM
20,CCCC[C@H](CO)NC(=O)[C@H](C)NC(=O)Cc1cc(F)cc(F)c1,> 29 µM
21,CCCC[C@@H](CO)NC(=O)[C@H](C)NC(=O)Cc1cc(F)cc(F)c1,0.46 µM
22,CCCC[C@H](NC(=O)[C@H](C)NC(=O)Cc1cc(F)cc(F)c1)C(=O)OC,0.015 µM
23,C[C@H](NC(=O)Cc1cc(F)cc(F)c1)C(=O)N[C@H](c1ccccc1)[C@@H](O)c1ccccc1,> 10 µM
24,C[C@H](NC(=O)[C@@H](O)c1cc(F)cc(F)c1)C(=O)N[C@H](CO)CCc1ccccc1,0.27 µM
25,C[C@H](NC(=O)[C@@H](O)c1cc(F)cc(F)c1)C(=O)N[C@H](CO)CC1CCCCC1,0.2 µM
26,CCCC[C@H](CO)NC(=O)[C@H](C)NC(=O)[C@@H](O)c1cc(F)cc(F)c1,24.5 µM
27,COC(=O)C[C@@H](O)[C@H](Cc1ccccc1)NC(=O)[C@H](C)NC(=O)Cc1cc(F)cc(F)c1,> 10 µM
28,CSCC[C@@H](CO)NC(=O)[C@H](C)NC(=O)Cc1cc(F)cc(F)c1,0.49 µM
